Data published in patent US6555139B2, “Preparation of micron-size pharmaceutical particles by microfluidization” (Wockhardt Europe Limited, priority 1999, dated 2003).
Like-named read-outs stand apart in the source and are kept apart here.

Key:
[1] = Particle size distribution (PSD) of suspensions before/after microfluidization (Mastersizer); format: physicochemical; conditions: 5,000 psi, 3 passes
Excerpt: The Microfluidizer M-210 EH operates at higher pressures up to 35000 psi. The process stream enters the inlet reservoir. An air-powered intensifier pumping system accelerates the process stream, propelling into a processing zone called the interaction chamber. This chamber consists of microchannels, where the process stream separates into two. It changes direction and collides into a single stream again. […] Then product is accelerated to a high velocity and is subjected to shear, impact and cavitation. This causes particles and droplets to reduce in size as small as sub-micron depending upon the processing pressure and number of cycles applied. […] After completion of the microfluidization step, the sized particles in suspension pass through pipe 18 out of the system, with a heat exchanger 20 shown in a preferred system to enable on-line drying of the micro-suspension resulting from the microfluidization. The microfluidization process is most conveniently practiced with operating pressures between 2000 pounds per square inch (psi) and 20,000 psi to provide resulting particle sizes of the dimensions most appropriate for pharmaceutical dosing. The process will often progress with increasingly higher operating pressures in each subsequent pass, such as using from 2,000 to 6,000 psi in a first pass, 5,000 to 11,000 psi in a second pass, and from 9,000 to 20,000 psi in a third pass (if needed). Each pass will generally be higher than a previous pass, or operating pressures may remain constant or decrease, depending upon the specific results desired in the processing.

[2] = cited from earlier work
[3] = micronized drug + Klucel LF + micronized β-cyclodextrin + Cremophor RH-40 + water
[4] = micronized drug + Klucel LF + unmicronized β-cyclodextrin + Cremophor RH-40 + water

Structure (SMILES): CCc1cccc2c3c([nH]c12)C(CC)(CC(=O)O)OCC3 (stereo not drawn) [Etodolac, etodolac]
- PSD of Output Material After Processing, d (0.9) [1, 3]: 12.15 μm
- solubility (pH 1): 0.001%
- solubility (pH 5): 0.01%

Structure (SMILES): CCOC(=O)C1=C(C)NC(C)=C(C(=O)OC)C1c1cccc(Cl)c1Cl (stereo not drawn) [Felodipine, felodipine]
- absorption from the colon [2]: impaired absorption from the colon

Structure (SMILES): Cc1cnc(C(=O)NCCc2ccc(S(=O)(=O)NC(=O)NC3CCCCC3)cc2)cn1 [Glipizide, glipizide]
- PSD of Output Material After Processing, d (0.5) [1, 3]: 5.72 μm
- PSD of Output Material After Processing, d (0.9) [1, 3]: 12.06 μm
- PSD of Output Material After Processing, d (0.5) [1, 4]: 3.84 μm
- PSD of Output Material After Processing, d (0.9) [1, 4]: 7.52 μm

Structure (SMILES): CCOC(=O)C1=C(C)NC(C)=C(C(=O)OC)C1c1cccc([N+](=O)[O-])c1 (stereo not drawn) [nitrendipine]
- absorption from the colon [2]: impaired absorption from the colon
